Test results taken from patent US12396995B2, “Substituted 4-aminoisoindoline-1,3-dione compounds and second active agents for combined use” (Celgene Corporation, priority 2019, dated 2025).

Columns and labels:
[1] = tested on: primary CLL cells (CD5+CD19+ tumor cells); test: Ex vivo apoptosis of B-cell CLL patient cells, Compound 1 with venetoclax (flow cytometry, Caspase 3); type: cell-based, human; conditions: 144 hrs
Description: CLL is characterized by accumulation of clonal CD5^+CD19^+ lymphocytes resistant to apoptosis. Venetoclax blocks the anti-apoptotic B-cell lymphoma-2 (Bcl-2) protein, leading to programmed cell death of CLL cells and is currently being tested in the clinic with different combinations for relapsed refractory patients. The effect of Compound 1 in combination with venetoclax on the proliferation and survival of CLL B cells was assessed utilizing an ex vivo model where primary CLL cells from patient-derived blood were stimulated to proliferate with 10% fetal bovine serum (FBS), 5 ng/mL recombinant human interleukine-4 (rh IL-4), 10 ng/mL recombinant human interleukine-10 (rh IL-10) and co-cultured with fibroblast expressing surface CD154 (CD40L) in a 96 well plate format.
Peripheral blood mononuclear cells (PBMCs) from CLL patients (Table 6) containing 52%-86% of CD5^+CD19^+ tumor cells were cultured at a density of 0.06-0.1×10^6 cells/well on a monolayer of CD154-expressing fibroblasts at a density of 0.09×10^6 cells/well in 96-well plates in RPMI 1640 medium supplemented with 10% FBS, 5 ng/mL rh IL-4 and 10 ng/mL rh IL-10 and were simultaneously treated with vehicle control (0.1% DMSO) or increasing concentrations of Compound 1 ranging from 0.0001 to 1 μM and venetoclax at concentrations ranging from 0.001 to 10 μM across all the different concentrations of Compound 1. After 144 hrs of treatment with both the agents, flow cytometric analysis was used to determine the number of tumor cells that were viable or apoptotic.
(§1) After 6 days of treatment, the tumor cell count was assessed by staining the patient PBMCs in each condition with tumor cell surface markers CD5 & CD19 along with Live/Dead fixable dye to exclude the dead cells and followed by intracellular staining for Caspase 3 antibody to identify the apoptotic cells and was measured by flow cytometry (Attune NxT, Thermo Fisher). The live tumor cell count for each condition was calculated by normalizing to the precision count beads added to each sample.
For apoptosis analysis, the percentage of apoptosis combining both “early” (Caspase 3 positive and Live-Dead fixable dye negative) and “late” apoptosis (Caspase 3 and Live-Dead fixable dye positive) cell gates subtracting the baseline DMSO value was graphed using GraphPad Prism 8.0.0.0. The Ymax (maximal percentage of apoptosis achieved) values from apoptosis curves were calculated by performing a nonlinear regression curve fitting using log(agonist) vs. normalized response—Variable slope analysis and identifying the maximum value on GraphPad Prism 8.0.0 (Table 7).

[2] = tested on: primary CLL cells (CD5+CD19+ tumor cells); test: Ex vivo apoptosis of B-cell CLL patient cells, Compound 1 with ibrutinib (flow cytometry, Caspase 3); type: cell-based, human; conditions: 144 hrs
Description: After 144 hrs of treatment with both the agents, flow cytometric analysis was used to determine the number of tumor cells that were viable or apoptotic.
as §1, with “The” for “After 6 days of treatment, the”, “Caspase3” for “Caspase 3”
For apoptosis analysis, the percentage of apoptosis combining both “early” (Caspase 3 positive and Live-Dead fixable dye negative) and “late” apoptosis (Caspase 3 and Live-Dead fixable dye positive) cell gates subtracting the baseline DMSO value was graphed using GraphPad Prism 8.0.0.0. The Ymax (maximal percentage of apoptosis achieved) values from apoptosis curves were calculated by performing a nonlinear regression curve fitting using log(agonist) vs. normalized response—Variable slope analysis and identifying the maximum value on GraphPad Prism 8.0.0 (Table 9).

[3] = DMSO + Cpd1 DRC (no venetoclax)

O=C1CC[C@H](N2C(=O)c3cccc(NCc4ccc(CN5CC(N6CCOCC6)C5)cc4F)c3C2=O)C(=O)N1 [Compound 1, (S)-2-(2,6-dioxopiperidin-3-yl)-4-((2-fluoro-4-((3-morpholinoazetidin-1-yl)methyl)benzyl)amino)isoindoline-1,3-dione]
Ymax of Pt 11 (%), maximal apoptosis [1, 3]: 12.42% | Ymax of Pt 12 (%), maximal apoptosis [1, 3]: 14.64% | Ymax of Pt 13 (%), maximal apoptosis [1, 3]: 27.00% | Ymax of Pt 14 (%), maximal apoptosis [1, 3]: 13.32% | Ymax of Pt 11 (%), maximal apoptosis ([1]; venetoclax 0.001 uM + Cpd1 DRC): 17.79% | Ymax of Pt 12 (%), maximal apoptosis ([1]; venetoclax 0.001 uM + Cpd1 DRC): 24.85% | Ymax of Pt 13 (%), maximal apoptosis ([1]; venetoclax 0.001 uM + Cpd1 DRC): 33.09% | Ymax of Pt 14 (%), maximal apoptosis ([1]; venetoclax 0.001 uM + Cpd1 DRC): 17.39% | Ymax of Pt 11 (%), maximal apoptosis ([1]; venetoclax 0.01 uM + Cpd1 DRC): 38.49% | Ymax of Pt 12 (%), maximal apoptosis ([1]; venetoclax 0.01 uM + Cpd1 DRC): 34.24% | Ymax of Pt 13 (%), maximal apoptosis ([1]; venetoclax 0.01 uM + Cpd1 DRC): 49.03% | Ymax of Pt 14 (%), maximal apoptosis ([1]; venetoclax 0.01 uM + Cpd1 DRC): 27.33% | Ymax of Pt 11 (%), maximal apoptosis ([1]; venetoclax 0.1 uM + Cpd1 DRC): 58.37% | Ymax of Pt 12 (%), maximal apoptosis ([1]; venetoclax 0.1 uM + Cpd1 DRC): 45.34% | Ymax of Pt 13 (%), maximal apoptosis ([1]; venetoclax 0.1 uM + Cpd1 DRC): 52.16% | Ymax of Pt 14 (%), maximal apoptosis ([1]; venetoclax 0.1 uM + Cpd1 DRC): 31.44% | Ymax of Pt 11 (%), maximal apoptosis ([1]; venetoclax 1 uM + Cpd1 DRC): 66.55% | Ymax of Pt 12 (%), maximal apoptosis ([1]; venetoclax 1 uM + Cpd1 DRC): 48.71% | Ymax of Pt 13 (%), maximal apoptosis ([1]; venetoclax 1 uM + Cpd1 DRC): 55.23% | Ymax of Pt 14 (%), maximal apoptosis ([1]; venetoclax 1 uM + Cpd1 DRC): 40.57% | Ymax of Pt 11 (%), maximal apoptosis ([1]; venetoclax 10 uM + Cpd1 DRC): 72.34% | Ymax of Pt 12 (%), maximal apoptosis ([1]; venetoclax 10 uM + Cpd1 DRC): 54.25% | Ymax of Pt 13 (%), maximal apoptosis ([1]; venetoclax 10 uM + Cpd1 DRC): 60.52% | Ymax of Pt 14 (%), maximal apoptosis ([1]; venetoclax 10 uM + Cpd1 DRC): 45.98% | Ymax of Pt 11 (%), maximal apoptosis ([2]; DMSO + Cpd1 DRC (no ibrutinib)): 14.40% | Ymax of Pt 12 (%), maximal apoptosis ([2]; DMSO + Cpd1 DRC (no ibrutinib)): 14.19% | Ymax of Pt 13 (%), maximal apoptosis ([2]; DMSO + Cpd1 DRC (no ibrutinib)): 36.93% | Ymax of Pt 14 (%), maximal apoptosis ([2]; DMSO + Cpd1 DRC (no ibrutinib)): 17.21% | Ymax of Pt 11 (%), maximal apoptosis ([2]; ibrutinib 0.001 uM + Cpd1 DRC): 19.80% | Ymax of Pt 12 (%), maximal apoptosis ([2]; ibrutinib 0.001 uM + Cpd1 DRC): 15.67% | Ymax of Pt 13 (%), maximal apoptosis ([2]; ibrutinib 0.001 uM + Cpd1 DRC): 26.75% | Ymax of Pt 14 (%), maximal apoptosis ([2]; ibrutinib 0.001 uM + Cpd1 DRC): 17.87% | Ymax of Pt 11 (%), maximal apoptosis ([2]; ibrutinib 0.01 uM + Cpd1 DRC): 18.66% | Ymax of Pt 12 (%), maximal apoptosis ([2]; ibrutinib 0.01 uM + Cpd1 DRC): 13.66% | Ymax of Pt 13 (%), maximal apoptosis ([2]; ibrutinib 0.01 uM + Cpd1 DRC): 30.53% | Ymax of Pt 14 (%), maximal apoptosis ([2]; ibrutinib 0.01 uM + Cpd1 DRC): 18.30% | Ymax of Pt 11 (%), maximal apoptosis ([2]; ibrutinib 0.1 uM + Cpd1 DRC): 12.33% | Ymax of Pt 12 (%), maximal apoptosis ([2]; ibrutinib 0.1 uM + Cpd1 DRC): 17.47% | Ymax of Pt 13 (%), maximal apoptosis ([2]; ibrutinib 0.1 uM + Cpd1 DRC): 32.49% | Ymax of Pt 14 (%), maximal apoptosis ([2]; ibrutinib 0.1 uM + Cpd1 DRC): 13.59% | Ymax of Pt 11 (%), maximal apoptosis ([2]; ibrutinib 1 uM + Cpd1 DRC): 19.73% | Ymax of Pt 12 (%), maximal apoptosis ([2]; ibrutinib 1 uM + Cpd1 DRC): 22.48% | Ymax of Pt 13 (%), maximal apoptosis ([2]; ibrutinib 1 uM + Cpd1 DRC): 29.70% | Ymax of Pt 14 (%), maximal apoptosis ([2]; ibrutinib 1 uM + Cpd1 DRC): 17.65% | Ymax of Pt 11 (%), maximal apoptosis ([2]; ibrutinib 10 uM + Cpd1 DRC): 29.73% | Ymax of Pt 12 (%), maximal apoptosis ([2]; ibrutinib 10 uM + Cpd1 DRC): 24.18% | Ymax of Pt 13 (%), maximal apoptosis ([2]; ibrutinib 10 uM + Cpd1 DRC): 35.37% | Ymax of Pt 14 (%), maximal apoptosis ([2]; ibrutinib 10 uM + Cpd1 DRC): 19.33%
